Results reported in patent publication US20190167819A1, “CONTRAST AGENTS” (BRACCO IMAGING S.P.A., priority 2016, published 2019).

Assay: Relaxometric properties: longitudinal relaxivity r1p in human plasma
Assay type: physicochemical
Conditions: 37° C.
Experimental: The relaxometric properties of some representative complex compounds according to the invention have been determined at different magnetic field strengths, e.g. including 0.47 and 1.41 T, at 37° C. and in different media (physiologic solution and human plasma) and compared with relaxivity values measured, at the same conditions, for some Gd-Complex of the market having an analogous cyclic coordination cage.
The longitudinal water proton relaxation rate (R1=1/T1) was measured at 0.47 T with a Minispec MQ-20 spectrometer (Bruker Biospin, Germany) operating at a proton Larmor frequency of 20 MHz; MR experiments at 1.41 T were performed using a Minispec MQ-60 spectrometer (Bruker Biospin, Germany) operating at a proton Larmor frequency of 60 MHz.
All test articles were used as supplied and diluted in the selected medium (physiologic solution or human plasma) by weighting the required amount of paramagnetic chelated complex to get a 5 or 10 mM starting solution.
Five different concentration samples (0.1, 0.25, 0.5, 0.75 and 1 mM) for each medium have been prepared by further dilution of the starting 5 or 10 mM solution.
Relaxivity measurements were performed at 0.47 T and 1.41 T at a preset temperature sample of 37° C., kept constant by means of a thermostatic bath connected to the sample holder of the spectrometer. The five sample solutions have been preliminary pre-heated at 37° C. in an external thermostatic bath and then left 10 minutes inside the internal bath to assure the stabilization of the temperature. Longitudinal relaxation time T1 was measured by means of a standard inversion recovery sequence, where the inversion time (TI) was varied from 10 ms to at least 5 times T1 in 15 steps. Statistical analysis (mono-exponential fitting for T1 measurement, linear fitting for the evaluation of longitudinal relaxivity) was performed by Mathematica® (Wolfram, USA). Errors on the estimated parameters were evaluated by the fitting procedure.

## CC(O)CN1CCN(CC(=O)O)CCN(CC(=O)O)CCN(CC(=O)O)CC1 (stereo not drawn) (Gd complex, metal not drawn)
0.47 T
  r1p in human plasma: 4.9 mM⁻¹ s⁻¹
1.41 T
  r1p in human plasma: 4.15 mM⁻¹ s⁻¹

## O=C(O)CN1CCN(CC(O)COCC(COCC(O)CN2CCN(CC(=O)O)CCN(CP(=O)(O)O)CCN(CC(=O)O)CC2)OCc2ccccc2)CCN(CC(=O)O)CCN(CP(=O)(O)O)CC1 (stereo not drawn)
0.47 T
  r1p in human plasma: 7.41 mM⁻¹ s⁻¹
1.41 T
  r1p in human plasma: 6.8 mM⁻¹ s⁻¹

## O=C(O)CN1CCN(CC(=O)O)CCN(CC(=O)O)CCN(CC(=O)O)CC1
0.47 T
  r1p in human plasma: 4.5 mM⁻¹ s⁻¹
1.41 T
  r1p in human plasma: 3.6 mM⁻¹ s⁻¹
